How the values were obtained:
Type in all cases: in vivo
[1] = test system: “Momotaro” tomato; experiment: Example 1 salt stress tolerance imparting test (tomato, hydroponic, Otsuka 1/2A + NaCl); details: NaCl 3510 ppm, leaf, 2 weeks
Experimental: (1) Salt stress-free test conditions: NaCl concentration (water potential by Nan): 0 ppm (0 MPa). Other cultivation conditions were as the same as the conditions of the drying stress test.
When the leaves in the 2-leaf stage fully unfolded, the soil on the tomato roots was carefully washed away with running water, and a test was performed.
Method of Salt Stress Tolerance Imparting Test
The environmental conditions in a climatic chamber were controlled so as to have a temperature of 23° C., an illuminance by a fluorescent light of 5000 Lux, and a daily light-dark cycle of a 16-hour light period and an 8-hour dark period. […] A treatment solution containing a compound of Table 1 in a specific concentration (the remainder was water) was prepared and sprayed onto the leaves or applied to the underground portion. In addition, a control plot to which no NaCl was added, not imposing a salt stress (this is a control plot for plant body weight 2 for Formula (ii) and is a stress-free control plot) and a control plot to which NaCl was added in various concentrations, imposing a salt stress, and to which the treatment solution was not applied (this is a control plot for plant body weight 1 for Formula (ii) and is a control plot including a salt stress) were prepared as controls. Ten specimens were prepared for each of the test plot and the control plots, and a plant stress level and an extent of imparting plant stress tolerance were calculated according to Formulas (II) above using as a fresh plant body weight the average of the fresh plant body weights of each specimen 2 weeks after the beginning of the test.

[2] = test system: “Momotaro” tomato; experiment: Example 2 temperature stress tolerance imparting test (tomato); details: leaf, 2 weeks
Experimental: Other cultivation conditions were the same as the conditions of the temperature stress test. […] (2) Solution culture medium: […] Method of Temperature Stress Tolerance Imparting Test The temperature in a climatic chamber was controlled so as to be 10, 15, or 32° C. The environmental conditions were controlled so as to have an illuminance by a fluorescent light of 5000 Lux and a daily light-dark cycle of a 16-hour light period and a 8-hour dark period. In this test, a temperature of 23° C. at which the optimum growth was observed was regarded as a reference temperature (temperature stress-free test condition), and a stress was imposed by applying a temperature higher or lower than the reference temperature. A tomato as prepared above was planted in a 250 ml polyethylene bottle filled with the solution culture medium (½ Otsuka A formulation). A treatment solution as presented in Table 1 was sprayed onto the leaves or applied to the underground portion. […] Ten specimens were prepared for each of the test plot and the control plots, and a plant stress level and an extent of imparting plant stress tolerance were calculated according to Formula (ii) and (iii) above using as a fresh plant body weight the average of the fresh plant body weights of each specimen 2 weeks after the beginning of the test.

[3] = test system: “Momotaro” tomato; experiment: Example 3 drying stress tolerance imparting test (tomato); details: 3 weeks
Experimental: Other cultivation conditions were as with the conditions of the drying stress test. Drying stress conditions: soil pF value: 2.3, 2.5, or 2.9, cultivation temperature: 23° C., relative humidity: 50%, illuminance: 5000 Lux (fluorescent light), light/dark cycle: 16 hours/8 hours (2) Cultivation period: 3 weeks (3) Soil: Kureha gardening soil manufactured by Kureha Corporation (fertilizer components: N:P:K=0.4:1.9:0.6 g/kg soil) (4) Plant preparation: A 50-cell tray was filled with Kureha gardening soil manufactured by Kureha Corporation (fertilizer components: N:P:K=0.4:1.9:0.6 g/kg soil), and seeds of a “Momotaro” tomato were sowed, thinly covered with Kureha gardening soil, and sufficiently watered to allow the seeds to sprout. When the leaves in the 2-leaf stage fully unfolded, the soil on the tomato roots was carefully washed away with running water, and a test was performed. (5) The chemicals used and the amount of a treatment solution applied were as in Example 1. (6) Amount of treatment solution applied: 10 ml/specimen for leaf spraying, 50 ml/specimen for fertigation Method of Drying Stress Tolerance Imparting Test Five tomato specimens as prepared above were planted in a 60-cm planter placed on a plant culture rack in an air-conditioned room. […] From immediately after planting the tomatoes, a treatment solution of Table 1 was sprayed onto the leaves or applied to the underground portions once a week. […] Five specimens (per planter) were prepared for each of the test plot and the control plots, plant bodies were collected 3 weeks after the beginning of the test such that the roots were not cut, the soil was washed away with running water, the fresh plant body-weights were measured, and a plant stress level and an extent of imparting plant stress tolerance were calculated according to Formula (ii) and (iii) above using the average of the weights.

[4] = test system: “Momotaro” tomato; experiment: Example 4 salt stress tolerance imparting test (tomato, tap water + NaCl); details: tap water + NaCl 3510 ppm, leaf, 2 weeks
Description: NaCl concentration 3510 ppm (water potential by NaCl: […]) (4) Cultivation period: two weeks (5) Plant preparation: A 50-cell tray was filled with Kureha gardening soil manufactured by Kureha Corporation (fertilizer components: N:P:K=0.4:1.9:0.6 g/kg soil), and seeds of a “Momotaro” tomato were sowed, thinly covered with Kureha gardening soil, and sufficiently irrigated to allow the seeds to sprout. When the leaves in the 2-leaf stage fully unfolded, the soil on the tomato roots was carefully washed away with running water, and a test was performed. (6) The chemicals used and the concentration of a treatment solution were as in Example 1 (7) Amount of application: 10 ml/specimen for leaf spraying, 50 ml/specimen for fertigation Method of Salt Stress Tolerance Imparting Test […]

[5] = test system: Potato Variety: Toyoshiro; experiment: Example 5 drying stress tolerance imparting test (potato variety Toyoshiro); details: 3 weeks
Experimental: Other cultivation conditions were the same as the conditions of the drying stress test. Drying stress conditions: soil pF value: 2.3, 2.5, or 2.9, cultivation temperature: 23° C., relative humidity: 50%, illuminance: 5000 Lux (fluorescent light), light/dark cycle: 16 hours/8 hours (2) Cultivation Period: 3 weeks (3) Soil: Kureha gardening soil manufactured by Kureha Corporation (fertilizer components: N:P:K=0.4:1.9:0.6 g/kg soil) (4) The chemicals used and the amount of a treatment solution applied were the same as in Example 3. Method of Drying Stress Tolerance Imparting Test A planter (60 cm) was filled with Kureha gardening soil manufactured by Kureha Corporation (fertilizer components: N:P:K=0.4:1.9:0.6 g/kg soil) in a glass greenhouse, tubers of a “Thyoshiro” potato were cut in half: and 5 pieces thereof were planted in the planter, thinly covered with Kureha gardening soil, and sufficiently watered to allow the tubers to sprout. When the leaves in the 3-leaf stage fully unfolded, the Solarium tuberosu was relocated on a plant culture rack in an air-conditioned room, and a test was initiated. […] From immediately after the beginning of the test, a treatment solution of Table 1 was sprayed onto the leaves or applied to the underground portions once a week. […] Five specimens (per planter) were prepared for each of the test plot and the control plots, plant bodies were collected 3 weeks after the beginning of the test such that the roots were not cut, the soil was washed away with running water, the fresh plant body weights were measured, and a plant stress level and an extent of imparting plant stress tolerance were calculated according to Formula (ii) and (iii) above using the average of the weights.

[6] = pF 2.3, leaf, 100 ppm once a week
[7] = pF 2.3, leaf, 200 ppm once a week
[8] = pF 2.5, leaf, 100 ppm once a week
[9] = pF 2.9, leaf, 100 ppm once a week

## POE (20) sorbitan monolauric acid ester [Product of present invention 12]
[1]; 100 ppm
  Extent of imparting plant stress tolerance: 116%
[1]; 200 ppm
  Extent of imparting plant stress tolerance: 120%
[2]; 32° C., 100 ppm
  Extent of imparting plant stress tolerance: 117%
[2]; 32° C., 200 ppm
  Extent of imparting plant stress tolerance: 121%
[3]; [6]
  Extent of imparting plant stress tolerance: 115%
[3]; [7]
  Extent of imparting plant stress tolerance: 118%
[4]; 100 ppm
  Extent of imparting plant stress tolerance: 116%
[4]; 200 ppm
  Extent of imparting plant stress tolerance: 117%
[5]; [6]
  Extent of imparting plant stress tolerance: 117%
[5]; [7]
  Extent of imparting plant stress tolerance: 120%

## Sucrose fatty acid ester (C18, HLB = 15) [Product of present invention 20]
[1]; 100 ppm
  Extent of imparting plant stress tolerance: 113%
[2]; 32° C., 100 ppm
  Extent of imparting plant stress tolerance: 115%
[3]; [6]
  Extent of imparting plant stress tolerance: 117%
[4]; 100 ppm
  Extent of imparting plant stress tolerance: 116%
[5]; [6]
  Extent of imparting plant stress tolerance: 118%

## Sorbitan monooleic acid ester [Product of present invention 11]
[1]; 100 ppm
  Extent of imparting plant stress tolerance: 112%
[2]; 32° C., 100 ppm
  Extent of imparting plant stress tolerance: 113%
[3]; [6]
  Extent of imparting plant stress tolerance: 112%
[4]; 100 ppm
  Extent of imparting plant stress tolerance: 112%
[5]; [6]
  Extent of imparting plant stress tolerance: 113%

## POE (20) sorbitan monostearic acid ester [Product of present invention 14]
[1]; 100 ppm
  Extent of imparting plant stress tolerance: 116%
[2]; 32° C., 100 ppm
  Extent of imparting plant stress tolerance: 118%
[3]; [6]
  Extent of imparting plant stress tolerance: 115%
[4]; 100 ppm
  Extent of imparting plant stress tolerance: 114%
[5]; [6]
  Extent of imparting plant stress tolerance: 115%

## C[N+](C)(C)CC(=O)[O-] [Comparative product 3, Glycine betaine, reference compound]
[1]; 100 ppm
  Extent of imparting plant stress tolerance: 103%
[2]; 32° C., 100 ppm
  Extent of imparting plant stress tolerance: 102%
[3]; [6]
  Extent of imparting plant stress tolerance: 103%
[4]; 100 ppm
  Extent of imparting plant stress tolerance: 103%
[5]; [6]
  Extent of imparting plant stress tolerance: 102%

## OC[C@H]1O[C@H](OC[C@H]2O[C@H](O[C@]3(CO)O[C@H](CO)[C@@H](O)[C@@H]3O)[C@H](O)[C@@H](O)[C@@H]2O)[C@H](O)[C@@H](O)[C@H]1O [Comparative product 4, Raffinose, reference compound]
[2]; 32° C., 100 ppm
  Extent of imparting plant stress tolerance: 103%
[3]; [6]
  Extent of imparting plant stress tolerance: 102%
[4]; 100 ppm
  Extent of imparting plant stress tolerance: 102%
[5]; [6]
  Extent of imparting plant stress tolerance: 103%

## POE (20) sorbitan monopalmitic acid ester [Product of present invention 13]
[1]; 100 ppm
  Extent of imparting plant stress tolerance: 117%
[2]; 32° C., 100 ppm
  Extent of imparting plant stress tolerance: 116%
[3]; [6]
  Extent of imparting plant stress tolerance: 116%
[4]; 100 ppm
  Extent of imparting plant stress tolerance: 116%
[5]; [6]
  Extent of imparting plant stress tolerance: 118%

## Alkyl (C10) polyglycoside [Product of present invention 15]
[1]; 100 ppm
  Extent of imparting plant stress tolerance: 115%
[1]; 200 ppm
  Extent of imparting plant stress tolerance: 114%
[2]; 32° C., 100 ppm
  Extent of imparting plant stress tolerance: 115%
[2]; 32° C., 200 ppm
  Extent of imparting plant stress tolerance: 115%
[3]; [6]
  Extent of imparting plant stress tolerance: 117%
[3]; [7]
  Extent of imparting plant stress tolerance: 115%
[4]; 100 ppm
  Extent of imparting plant stress tolerance: 116%
[4]; 200 ppm
  Extent of imparting plant stress tolerance: 113%
[5]; [6]
  Extent of imparting plant stress tolerance: 119%
[5]; [7]
  Extent of imparting plant stress tolerance: 116%

## Sucrose fatty acid ester (C18:1, HLB = 15) [Product of present invention 22]
[1]; 200 ppm
  Extent of imparting plant stress tolerance: 112%
[2]; 32° C., 100 ppm
  Extent of imparting plant stress tolerance: 115%
[2]; 32° C., 200 ppm
  Extent of imparting plant stress tolerance: 113%
[3]; [6]
  Extent of imparting plant stress tolerance: 117%
[3]; [7]
  Extent of imparting plant stress tolerance: 113%
[4]; 100 ppm
  Extent of imparting plant stress tolerance: 118%
[4]; 200 ppm
  Extent of imparting plant stress tolerance: 111%
[5]; [6]
  Extent of imparting plant stress tolerance: 119%
[5]; [7]
  Extent of imparting plant stress tolerance: 114%

## O=C(O)[C@@H]1CCCN1 [Comparative product 2, Proline, reference compound]
[2]; 10° C., 100 ppm
  Extent of imparting plant stress tolerance: 102%
[2]; 15° C., 100 ppm
  Extent of imparting plant stress tolerance: 102%
[2]; 32° C., 100 ppm
  Extent of imparting plant stress tolerance: 102%
[3]; [6]
  Extent of imparting plant stress tolerance: 103%
[3]; [8]
  Extent of imparting plant stress tolerance: 102%
[3]; [9]
  Extent of imparting plant stress tolerance: 103%
[4]; 100 ppm
  Extent of imparting plant stress tolerance: 103%
[5]; [6]
  Extent of imparting plant stress tolerance: 102%
[5]; [8]
  Extent of imparting plant stress tolerance: 103%
[5]; [9]
  Extent of imparting plant stress tolerance: 103%

Source: patent publication US20110100079A1, “METHOD FOR IMPARTING STRESS TOLERANCE TO PLANT” (priority 2007, published 2011)
